Test results from patent publication US20110015241A1, “SUBSTITUTED HETEROCYCLES AND USE THEREOF” (BAYER SCHERING PHARMA AKTIENGESELLSCHAFT, priority 2006, published 2011).
pIC50: −log10 of the molar value. Where a name gives a salt, the structure may show the parent alone.

Target: T1, human factor Xa (Homo sapiens, UniProt P00742)
T1 construct: factor Xa, which is formed from the proenzyme factor X
Assay: Determination of the factor Xa inhibition (fluorogenic substrate Boc-Ile-Glu-Gly-Arg-AMC)
Assay type: biochemical
Settings: 15 min preincubation at 22° C., substrate 5 μmol/l, pH 7.4, fluorescence 360/460 nm
Description: In order to determine the factor Xa inhibition of the substances listed above, a biochemical test system is set up, in which the conversion of a factor Xa substrate is used to determine the enzymatic activity of human factor Xa. Factor Xa cleaves aminomethylcoumarin, whose fluorescence is measured, from the peptidic substrate. The determinations are carried out in microtitre plates.
Substances to be tested, in various concentrations, are dissolved in dimethyl sulphoxide and incubated for 15 min at 22° C. with human Factor Xa ([…] dissolved in 50 mmol/l of Tris buffer [C,C,C-tris(hydroxymethyl)aminomethane], 100 mmol/l NaCl, 0.1% BSA [bovine serum albumin], pH 7.4). The substrate (5 μmol/l of Boc-Ile-Glu-Gly-Arg-AMC from Bachem) is then added. After an incubation time of 30 min, the sample is excited at a wavelength of 360 nm, and the emission at 460 nm is measured. The measured emissions of the test batches with test substance are compared to the control batches without test substance (only dimethyl sulphoxide instead of test substance in dimethyl sulphoxide), and IC50 values are calculated from the concentration/activity relationships.

T1 sequence (P00742 235-488 limits assumed): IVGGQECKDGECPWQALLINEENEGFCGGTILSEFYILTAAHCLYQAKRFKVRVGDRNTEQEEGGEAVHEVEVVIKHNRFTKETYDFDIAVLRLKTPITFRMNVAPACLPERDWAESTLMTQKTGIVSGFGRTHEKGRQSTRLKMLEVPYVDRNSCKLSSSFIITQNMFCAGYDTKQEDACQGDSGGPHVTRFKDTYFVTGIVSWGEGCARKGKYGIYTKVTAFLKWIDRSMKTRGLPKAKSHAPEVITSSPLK
T1 sequence (P00742 41-179 partner limits assumed): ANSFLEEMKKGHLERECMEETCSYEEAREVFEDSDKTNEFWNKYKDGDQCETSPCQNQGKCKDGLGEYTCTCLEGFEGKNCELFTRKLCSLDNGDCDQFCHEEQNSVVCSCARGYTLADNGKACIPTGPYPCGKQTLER

N=C1OCCN1c1ccc(C2=NOC(CNC(=O)c3ccc(Cl)s3)C2)cc1 (centres unmarked) [Example 1, 5-Chloro-N-({3-[4-(2-imino-1,3-oxazolidin-3-yl)phenyl]-4,5-dihydroisoxazol-5-yl}methyl)thiophene-2-carboxamide]
pIC50: 8.10

N=C1OCCN1c1ccc(-n2cc(CNC(=O)c3ccc(Cl)s3)c(-c3ccccc3)n2)cc1 [Example 2, 5-Chloro-N-({1-[4-(2-imino-1,3-oxazolidin-3-yl)phenyl]-3-phenyl-1H-pyrazol-4-yl}methyl)thiophene-2-carboxamide hydrochloride]
pIC50: 8.85
